Results reported in patent US20150197497A1, “SELECTIVE INHIBITORS OF HISTONE DEACETYLASE ISOFORM 6 AND METHODS THEREOF” (DANA-FARBER CANCER INSTITUTE, INC., priority 2011, published 2015).

How the values were obtained:
HDAC2 = molecular target: T1, HDAC2 (Homo sapiens, UniProt Q92769); assay: In vitro HDAC enzyme inhibition assay, HDAC2; format: biochemical; conditions: for HDAC2/HDAC6 in vitro selectivity: ratio of IC50 for HDAC2 relative to that of HDAC6; for IC50: recombinant full-length HDAC2, substrate MAZ1600 22 μM
T1 construct: Recombinant, full-length HDAC protein (BPS Biosciences) was incubated with fluorophore conjugated substrate; purchased BPS Biosciences
Description: (§1) In vitro Histone Deacetylase enzyme assays were performed using Class I (isoforms: HDAC1, HDAC2, HDAC3 and HDAC8), class IIa (isoforms: HDAC4, HDAC5, HDAC7 and HDAC9) and class IIb (isoform HDAC6).
(§2) HDAC activities were determined in vitro with an optimized homogenous assay performed in a 384-well plate. Recombinant, full-length HDAC protein (BPS Biosciences) was incubated with fluorophore conjugated substrate, MAZ1600 and MAZ1675, at Km=[S]. […] Reactions were performed in assay buffer (50 mM HEPES, 100 mM KCl, 0.001% Tween-20, 0.05% BSA, 200 μM tris(2-carboxyethyl)phosphine (TCEP), pH 7.4) and followed for fluorogenic release of 7-amino-4-methylcoumarin from substrate upon deacetylase and trypsin enzymatic activity. Fluorescence measurements were obtained every five minutes using a multilabel plate reader and plate-stacker (Envision; Perkin-Elmer). Each plate was analyzed by plate repeat, and the first derivative within the linear range was imported into analytical software (Spotfire DecisionSite and GraphPad Prism). Replicate experimental data from incubations with inhibitor were normalized to controls.

acetylated tubulin = assay: High-content image analysis of induction of acetylated tubulin in A549 cells; conditions: for EC50: Homo sapiens, A549, 8 h, read-out: EC50 for half-maximal induction of acetylated tubulin (AcTubulin); for AcHistone/AcTubulin in cell selectivity toward HDAC6: ratio of EC50 acetylated histone to EC50 acetylated tubulin
Description: Cells were treated with each test HDACi compound with an automated pin transfer instrument (Janus, Perkin Elmer) and incubated for 8 hours. […] Fixation solution was aspirated and 90 μL of washing solution (0.1% Triton X-100 in PBS) was added prior to 10 minute incubation at 4° C. Washing solution was aspirated and cells were incubated at 4° C. for about 1 hour in blocking solution (0.1% Triton X-100+2% BSA in PBS). Washing solution was aspirated, and cells were incubated for about 1 hour at 4° C. in primary antibody for acetylated-tubulin (Sigma T7451) and acetylated-histone (Cell Signaling #9441L) at a 1:1000 dilution in blocking solution. Primary antibody solution was aspirated, and cells were washed three times in 90 μL of washing solution. […] Secondary antibody and nuclear staining solution was aspirated and cells were washed three times in 90 μL of washing solution. After the third wash, 50 μL of PBS was added to each well. Image acquisition was done on a high content imaging microscope (ImageXpress Micro, Molecular Devices), and image analysis (MetaXpress, Molecular Devices) was performed to obtain average acetylated-tubulin and acetylated-histone signal per cell based on treatment. Replicate experimental data from incubations with inhibitor were normalized to DMSO controls.

HDAC4 = molecular target: T2, HDAC4 (Homo sapiens, UniProt P56524); assay: In vitro HDAC enzyme inhibition assay, HDAC4; format: biochemical; conditions: for HDAC4/HDAC6 in vitro selectivity: ratio of IC50 for HDAC4 relative to that of HDAC6; for IC50: recombinant full-length HDAC4, substrate MAZ1675 10 μM; for selectivity toward HDAC6 compared to HDAC4 (in words): tested in vitro
T2 construct: Recombinant, full-length HDAC protein (BPS Biosciences) was incubated with fluorophore conjugated substrate; purchased BPS Biosciences
Description: as §1, §2

HDAC1 = molecular target: T3, HDAC1 (Homo sapiens, UniProt Q13547); assay: In vitro HDAC enzyme inhibition assay, HDAC1; format: biochemical; conditions: for HDAC1/HDAC6 in vitro selectivity: ratio of IC50 for HDAC1 relative to that of HDAC6; for IC50: recombinant full-length HDAC1, substrate MAZ1600 21 μM
T3 construct: Recombinant, full-length HDAC protein (BPS Biosciences) was incubated with fluorophore conjugated substrate; purchased BPS Biosciences
Description: as §1, §2

HDAC8 = molecular target: T4, HDAC8 (Homo sapiens, UniProt Q9BY41); assay: In vitro HDAC enzyme inhibition assay, HDAC8; format: biochemical; conditions: for HDAC8/HDAC6 in vitro selectivity: ratio of IC50 for HDAC8 relative to that of HDAC6; for IC50: recombinant full-length HDAC8, substrate MAZ1675 282 μM
T4 construct: Recombinant, full-length HDAC protein (BPS Biosciences) was incubated with fluorophore conjugated substrate; purchased BPS Biosciences
T4 sequence (Q9BY41 1-377): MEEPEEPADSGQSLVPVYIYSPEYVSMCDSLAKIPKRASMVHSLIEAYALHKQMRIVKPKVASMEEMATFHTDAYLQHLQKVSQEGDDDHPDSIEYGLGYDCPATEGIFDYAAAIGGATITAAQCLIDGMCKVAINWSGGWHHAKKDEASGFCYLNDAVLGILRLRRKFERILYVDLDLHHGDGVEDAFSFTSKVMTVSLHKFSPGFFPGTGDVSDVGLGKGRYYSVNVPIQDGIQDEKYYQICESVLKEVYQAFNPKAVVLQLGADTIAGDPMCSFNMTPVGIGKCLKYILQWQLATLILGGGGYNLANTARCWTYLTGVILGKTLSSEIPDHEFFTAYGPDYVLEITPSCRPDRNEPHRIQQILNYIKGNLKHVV
Description: as §1, §2

HDAC3 = molecular target: T5, HDAC3 (Homo sapiens, UniProt O15379); assay: In vitro HDAC enzyme inhibition assay, HDAC3; format: biochemical; conditions: for HDAC3/HDAC6 in vitro selectivity: ratio of IC50 for HDAC3 relative to that of HDAC6; for IC50: recombinant full-length HDAC3, substrate MAZ1600 9 μM
T5 construct: Recombinant, full-length HDAC protein (BPS Biosciences) was incubated with fluorophore conjugated substrate; purchased BPS Biosciences
Description: as §1, §2

T2 sequence (P56524 whole entry): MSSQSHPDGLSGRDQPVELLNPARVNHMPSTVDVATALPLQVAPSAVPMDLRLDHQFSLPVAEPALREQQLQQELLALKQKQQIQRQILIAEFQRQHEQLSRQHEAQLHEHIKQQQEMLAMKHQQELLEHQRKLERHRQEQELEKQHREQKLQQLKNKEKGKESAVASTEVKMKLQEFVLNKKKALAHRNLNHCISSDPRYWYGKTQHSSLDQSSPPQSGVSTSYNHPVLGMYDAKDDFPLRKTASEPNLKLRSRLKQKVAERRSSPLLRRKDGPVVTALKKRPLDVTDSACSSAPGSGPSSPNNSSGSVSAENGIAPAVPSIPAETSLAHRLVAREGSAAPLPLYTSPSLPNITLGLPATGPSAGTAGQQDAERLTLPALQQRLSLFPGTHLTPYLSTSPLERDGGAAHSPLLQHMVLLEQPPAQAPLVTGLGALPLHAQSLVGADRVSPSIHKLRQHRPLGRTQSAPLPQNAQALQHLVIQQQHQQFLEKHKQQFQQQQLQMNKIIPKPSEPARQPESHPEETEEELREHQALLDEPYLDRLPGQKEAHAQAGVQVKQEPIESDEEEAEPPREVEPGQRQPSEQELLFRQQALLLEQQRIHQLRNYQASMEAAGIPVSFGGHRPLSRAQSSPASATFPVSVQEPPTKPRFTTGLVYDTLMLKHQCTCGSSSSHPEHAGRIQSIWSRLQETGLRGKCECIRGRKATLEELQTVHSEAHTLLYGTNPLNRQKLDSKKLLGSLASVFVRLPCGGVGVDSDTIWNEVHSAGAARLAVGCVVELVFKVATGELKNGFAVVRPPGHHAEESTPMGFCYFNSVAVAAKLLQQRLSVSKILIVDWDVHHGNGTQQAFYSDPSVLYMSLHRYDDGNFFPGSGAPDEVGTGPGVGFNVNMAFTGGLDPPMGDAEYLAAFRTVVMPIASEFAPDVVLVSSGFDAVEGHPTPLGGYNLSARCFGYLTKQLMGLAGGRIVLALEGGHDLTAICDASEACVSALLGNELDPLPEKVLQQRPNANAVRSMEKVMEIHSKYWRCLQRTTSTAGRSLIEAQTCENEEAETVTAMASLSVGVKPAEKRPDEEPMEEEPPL
T1 sequence (Q92769 whole entry): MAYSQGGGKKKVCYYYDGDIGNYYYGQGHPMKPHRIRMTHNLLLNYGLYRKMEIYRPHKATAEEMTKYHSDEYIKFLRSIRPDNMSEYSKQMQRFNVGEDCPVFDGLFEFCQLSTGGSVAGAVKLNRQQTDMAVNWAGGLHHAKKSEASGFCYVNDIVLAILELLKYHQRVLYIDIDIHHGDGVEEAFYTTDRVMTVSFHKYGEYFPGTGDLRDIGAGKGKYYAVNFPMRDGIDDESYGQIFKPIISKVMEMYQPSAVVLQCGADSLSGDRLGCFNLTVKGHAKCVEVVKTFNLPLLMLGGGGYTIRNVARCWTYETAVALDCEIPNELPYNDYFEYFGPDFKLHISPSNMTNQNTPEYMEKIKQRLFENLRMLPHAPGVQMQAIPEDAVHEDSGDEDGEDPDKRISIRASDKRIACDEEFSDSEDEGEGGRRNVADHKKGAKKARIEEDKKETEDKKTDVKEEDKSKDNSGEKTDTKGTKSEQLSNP
T5 sequence (O15379 whole entry): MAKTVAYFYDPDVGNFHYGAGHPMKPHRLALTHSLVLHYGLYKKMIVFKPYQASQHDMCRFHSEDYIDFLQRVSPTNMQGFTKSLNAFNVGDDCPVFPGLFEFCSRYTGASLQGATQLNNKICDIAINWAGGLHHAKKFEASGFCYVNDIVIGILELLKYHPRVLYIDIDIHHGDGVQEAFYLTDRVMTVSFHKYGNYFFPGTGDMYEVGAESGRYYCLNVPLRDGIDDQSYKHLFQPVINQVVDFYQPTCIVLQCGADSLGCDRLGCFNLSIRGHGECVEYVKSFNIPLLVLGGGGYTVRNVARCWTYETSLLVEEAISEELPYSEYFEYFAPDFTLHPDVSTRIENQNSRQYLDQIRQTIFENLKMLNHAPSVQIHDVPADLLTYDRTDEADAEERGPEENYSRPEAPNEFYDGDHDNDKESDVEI
T5 sequence (Q9Y618 395-489 partner limits assumed): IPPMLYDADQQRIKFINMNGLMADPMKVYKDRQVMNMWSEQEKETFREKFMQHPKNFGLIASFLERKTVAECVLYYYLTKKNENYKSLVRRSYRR
T3 sequence (Q13547 whole entry): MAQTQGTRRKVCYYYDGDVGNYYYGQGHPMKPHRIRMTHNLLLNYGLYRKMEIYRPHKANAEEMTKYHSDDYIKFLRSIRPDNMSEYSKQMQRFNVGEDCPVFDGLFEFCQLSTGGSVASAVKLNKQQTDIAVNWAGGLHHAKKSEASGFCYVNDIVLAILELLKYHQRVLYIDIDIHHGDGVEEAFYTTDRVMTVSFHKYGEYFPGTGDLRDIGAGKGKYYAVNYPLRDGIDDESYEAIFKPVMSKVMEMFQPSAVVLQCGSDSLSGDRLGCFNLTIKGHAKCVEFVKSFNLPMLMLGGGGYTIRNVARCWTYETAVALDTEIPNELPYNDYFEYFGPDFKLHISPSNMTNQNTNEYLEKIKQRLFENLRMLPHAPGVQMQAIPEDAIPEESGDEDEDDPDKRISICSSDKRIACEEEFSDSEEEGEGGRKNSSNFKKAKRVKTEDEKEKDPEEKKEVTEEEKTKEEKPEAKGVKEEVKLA

Row | SMILES | HDAC2/HDAC6 in vitro selectivity (HDAC2) | IC50 (HDAC2) [nM] | EC50 (acetylated tubulin) [nM] | HDAC4/HDAC6 in vitro selectivity (HDAC4) | IC50 (HDAC4) [nM] | HDAC1/HDAC6 in vitro selectivity (HDAC1) | IC50 (HDAC1) [nM] | HDAC8/HDAC6 in vitro selectivity (HDAC8) | IC50 (HDAC8) [nM] | HDAC3/HDAC6 in vitro selectivity (HDAC3) | IC50 (HDAC3) [nM] | AcHistone/AcTubulin in cell selectivity toward HDAC6 (acetylated tubulin; A549 cells) | selectivity toward HDAC6 compared to HDAC4 (in words) (HDAC4) | levels of acetylated tubulin, dose response (in words) (acetylated tubulin; A549 cells, FIG. 11)
1 | O=C(NO)c1ccc(Cn2c(C(F)(F)F)nc3cc(Br)ccc32)cc1 [A5, 4-((5-bromo-2-(trifluoromethyl)-1H-benzo[d]imidazol-l-yl)methyl)-N-hydroxybenzamide] | 471 | 146 | 190 | 2783 | 862 | 541 | 167 | 3501 | 1080 | 2529 | 784 | 10.17 |  | 
2 | Cc1ccc2c(c1)ncn2Cc1ccc(C(=O)NO)cc1 [A8, N-hydroxy-4-((5-methyl-1H-benzo[d]imidazol-1-yl)methyl)benzamide] | 762 | 290 | 105 | 7247 | 2760 | 688 | 262 | 2847 | 1080 | 1596 | 608 | 0.7591 |  | 
3 | Cc1ccc2c(c1)nc(C(F)(F)F)n2Cc1ccc(C(=O)NO)cc1 [A2, N-hydroxy-4-((5-methyl-2-(trifluoromethyl)-1H-benzo[d]imidazol-1-yl)methyl)benzamide] | 553 | 169 | 100 | 2775 | 848 | 808 | 247 | 4364 | 1330 | 3718 | 1140 | 2.411 |  | 
4 | O=C(NO)c1ccc(Cn2cnc3cc(F)ccc32)cc1 [A9, 4-((5-fluoro-1H-benzo[d]imidazol-1-yl)methyl)-N-hydroxybenzamide] | 3132 | 208 | 132 | 28751 | 1910 | 2812 | 186 | 12348 | 819 | 9140 | 606 | 0.4765 |  | 
5 | O=C(NO)c1ccc(Cn2cnc3ccccc32)cc1 [A7] | 1853 | 181 | 159 | 17962 | 1760 | 2695 | 264 | 6573 | 643 | 4791 | 469 | 1.459 |  | 
6 | COc1ccc2c(c1)ncn2Cc1ccc(C(=O)NO)cc1 [A12, N-hydroxy-4-((5-methoxy-1H-benzo[d]imidazol-1-yl)methyl)benzamide] | 1125 | 244 | 221 | 12423 | 2690 | 1378 | 299 | 6543 | 1420 | 2293 | 497 | 0.4738 |  | 
7 | O=C(NO)c1ccc(Cn2c(C(F)(F)F)nc3ccccc32)cc1 [A1, N-hydroxy-4-((2-(trifluoromethyl)-1H-benzo[d]imidazol-1-yl)methyl)benzamide] | 1230 | 581 | 452 | 2948 | 1390 | 1444 | 682 | 3764 | 1780 | 3791 | 1790 | 14.01 |  | dose-dependent increase
8 | O=C(NO)c1ccc(Cn2cnc3cc(Cl)ccc32)cc1 [A10, 4-((5-chloro-1H-benzo[d]imidazol-1-yl)methyl)-N-hydroxybenzamide] | 1364 | 94.1 | 188 | 21516 | 1480 | 1399 | 96.5 | 7524 | 519 | 3046 | 210 | 4.787 |  | 

The next lines start with results.

Row | HDAC2/HDAC6 in vitro selectivity (HDAC2) | IC50 (HDAC2) [nM] | EC50 (acetylated tubulin) [nM] | HDAC4/HDAC6 in vitro selectivity (HDAC4) | IC50 (HDAC4) [nM] | HDAC1/HDAC6 in vitro selectivity (HDAC1) | IC50 (HDAC1) [nM] | HDAC8/HDAC6 in vitro selectivity (HDAC8) | IC50 (HDAC8) [nM] | HDAC3/HDAC6 in vitro selectivity (HDAC3) | IC50 (HDAC3) [nM] | SMILES | AcHistone/AcTubulin in cell selectivity toward HDAC6 (acetylated tubulin; A549 cells) | selectivity toward HDAC6 compared to HDAC4 (in words) (HDAC4) | levels of acetylated tubulin, dose response (in words) (acetylated tubulin; A549 cells, FIG. 11)
9 | 2562 | 141 | 1920 | 34808 | 1920 | 1712 | 94.5 | 11132 | 615 | 3920 | 216 | O=C(NO)c1ccc(Cn2nnc3cc(Cl)ccc32)cc1 [C4, 4-((5-chloro-1H-benzo[d][1,2,3]triazol-1-yl)methyl)-N-hydroxybenzamide] | 3.137 | exceptionally high selectivity (Inhibitors with in vitro selectivity values for HDAC6 of at least 30,000 are considered to have exceptionally high selectivity toward HDAC6) | 
10 | 3277 | 84.5 | 150 | 60319 | 1560 | 2113 | 54.5 | 16483 | 425 | 4479 | 115 | O=C(NO)c1ccc(Cn2nnc3cc(Br)ccc32)cc1 [C5, 4-((5-bromo-1H-benzo[d][1,2,3]triazol-1-yl)methyl)-N-hydroxybenzamide] | 15.37 | exceptionally high selectivity (Inhibitors with in vitro selectivity values for HDAC6 of at least 30,000 are considered to have exceptionally high selectivity toward HDAC6) | 
11 | 991 | 25.5 | 154 | 60006 | 1540 | 1224 | 31.5 | 21403 | 551 | 1236 | 31.8 | COc1ccc2c(c1)[nH]c(=O)n2Cc1ccc(C(=O)NO)cc1 [B7, N-hydroxy-4-((5-methoxy-2-oxo-2,3-dihydro-1H-benzo[d]imidazol-1-yl)methyl)benzamide] | 10.013 | exceptionally high selectivity (Inhibitors with in vitro selectivity values for HDAC6 of at least 30,000 are considered to have exceptionally high selectivity toward HDAC6) | 
12 | 210 | 5.3 | 80.5 | 25301 | 639 | 209 | 5.29 | 6673 | 169 | 353 | 8.92 | O=C(NO)c1ccc(Cn2c(=O)[nH]c3cc(Cl)ccc32)cc1 [B4, 4-((5-chloro-2-oxo-2,3-dihydro-1H-benzo[d]imidazol-1-yl)methyl)-N-hydroxybenzamide] | 5.217 |  | 
